What was measured:
[1] = target: prolyl endopeptidase (Elizabethkingia meningoseptica, UniProt P27028); assay: Anti-prolyl endopeptidase activity (inhibition of digestion of Z-glycyl-prolyl-β-naphthylamide); type: biochemical; settings: amount for 50% inhibition; 0.0025M Z-glycyl-prolyl-β-naphthylamide (0.25 ml), pH 7.0, 35° C., 10 minutes, absorbance at 410 nm
Experimental: The method of Yoshimoto and Tsuru [T. Yoshimoto and D. Tsuru, Agric. Biol. Chem., 42, 2417 (1978)] was used to measure the anti-prolyl endopeptidase activities of several compounds of the present invention. A mixture of 0.0025M Z-glycyl-prolyl-β-naphthylamide (0.25 ml), 0.1M phosphate buffer (pH, 7.0; 0.99 ml) and a solution of a particular anti-prolyl endopeptidase compound (0.01 ml) was incubated in a test tube at 37° C. for 3 minutes. Thereafter, 0.1 ml of a solution of prolyl endopeptidase (0.2 U/ml) was added and the mixture was incubated at 35° C. for 10 minutes. After the reaction, 2.0 ml of Triton X-100 in 1M acetate buffer (pH, 4.0) was added to the reaction mixture so that the final concentration of the surfactant might be 10%. The mixture was left at room temperature for 15 minutes and the absorbance (a) at 410 nm was measured.
A sample of a blind test was prepared by using the buffer instead of the anti-prolyl endopeptidase compound and its absorbance (b) was also measured. The percentage of inhibition against prolyl endopeptidase was calculated by the formula: […]
and the amount of a specific compound need to achieve 50% inhibition (IC50) was determined.

[2] = test system: DDY strain male mice; assay: Memory fixation test in mice (passive avoidance learning); type: in vivo; settings: 5 mice, assessed 24 hours after learning, physiological saline control 47 sec.
Experimental: The measurement was conducted in accordance with the method described in Experientia 40, 506 (1984) with a slight modification made by the inventors. Several of the compounds of the invention were checked for their ability to enhance long-term memory fixation in the passive avoidance learning method using an apparatus which has an electrifiable grid floor and a refuge platform on one end of the floor. […] One hour after the administration, electric shocks were applied to the mice in a black box so that they would acquire passive avoidance learning.
The results of the test were assessed 24 hours after the learning in terms of the memory fixation acquired in the passive avoidance learning by measuring the residence time (latency) during which the mice stayed on the platform. The results between the test groups which received the test compound and the control group which received physiological saline in place of the test compound were compared.

Sequence of prolyl endopeptidase (P27028 21-705): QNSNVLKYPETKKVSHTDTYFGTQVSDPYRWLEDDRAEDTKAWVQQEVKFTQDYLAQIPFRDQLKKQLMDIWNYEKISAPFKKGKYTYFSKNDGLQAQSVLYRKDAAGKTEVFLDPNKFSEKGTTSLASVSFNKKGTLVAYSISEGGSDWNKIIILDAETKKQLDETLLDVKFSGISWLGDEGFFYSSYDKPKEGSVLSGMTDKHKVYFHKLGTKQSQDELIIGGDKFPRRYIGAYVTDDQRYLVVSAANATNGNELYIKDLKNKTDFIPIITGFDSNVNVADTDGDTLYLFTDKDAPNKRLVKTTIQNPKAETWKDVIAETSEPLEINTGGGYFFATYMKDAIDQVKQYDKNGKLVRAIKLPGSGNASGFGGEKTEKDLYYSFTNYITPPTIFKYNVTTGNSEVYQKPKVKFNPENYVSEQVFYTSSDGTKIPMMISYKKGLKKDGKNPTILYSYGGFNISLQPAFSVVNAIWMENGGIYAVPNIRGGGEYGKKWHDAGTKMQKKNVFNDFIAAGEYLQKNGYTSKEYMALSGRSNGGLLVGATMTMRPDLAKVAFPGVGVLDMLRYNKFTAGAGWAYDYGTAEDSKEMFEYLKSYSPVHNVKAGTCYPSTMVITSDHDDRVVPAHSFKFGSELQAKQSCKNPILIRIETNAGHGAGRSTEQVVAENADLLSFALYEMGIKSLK

Q: With `O=C([C@@H]1C[C@H](Oc2ccc(Cl)cc2)CN1C(=O)CCCc1ccccc1)N1CCCC1` [SUAM 14508, N-[N-(4-phenylbutanoyl)-cis-4-(4-chlorophenoxy)-L-prolyl]pyrrolidine] as the molecule, how does the IC50 [1] read?
A: 0.04 μg/test tube

Q: Which IC50 [1] does the source give for `CC(=O)O[C@H]1C[C@@H](C(=O)N2CCCC2)N(C(=O)CCCc2ccccc2)C1` [SUAM 14507, N-[N-(4-phenylbutanoyl)-cis-4-acetoxy-L-prolyl]pyrrolidine] here?
A: 0.10 μg/test tube

Q: And the Latency ([2]; 3.0 mg/kg per os)?
A: 53 s

Q: `O=C(O[C@H]1C[C@@H](C(=O)N2CCCC2)N(C(=O)CCCc2ccccc2)C1)c1ccc(Cl)cc1` [SUAM 14503, N-[N-(4-phenylbutanoyl)-cis-4-(4-chlorobenzoyloxy)-L-prolyl]pyrrolidine] was tested. Which IC50 [1] did it give?
A: 0.06 μg/test tube

Q: With `O=C(O[C@@H]1C[C@@H](C(=O)N2CCCC2)N(C(=O)CCCc2ccccc2)C1)c1ccc(Cl)cc1` [SUAM 14499, N-[N-(4-phenylbutanoyl)-trans-4-(4-chlorobenzoyloxy)-L-prolyl]pyrrolidine] as the molecule, how does the IC50 [1] read?
A: 0.20 μg/test tube

Q: How did the IC50 [1] turn out when `O=C(O[C@H]1C[C@@H](C(=O)N2CCCC2)N(C(=O)CCCc2ccccc2)C1)c1ccccc1` [SUAM 14502, N-[N-(4-phenylbutanoyl)-cis-4-benzoyloxy-L-prolyl]pyrrolidine] was run?
A: 0.06 μg/test tube

Q: Which IC50 [1] does the source give for `COc1cccc(O[C@H]2C[C@@H](C(=O)N3CCCC3)N(C(=O)CCCc3ccccc3)C2)c1` [SUAM 14468, N-[N-(4-phenylbutanoyl)-cis-4-(3-methoxyphenoxy)-L-prolyl]pyrrolidine] here?
A: 0.03 μg/test tube

Q: Which IC50 [1] does the source give for `COc1ccc(C(=O)O[C@@H]2C[C@@H](C(=O)N3CCCC3)N(C(=O)CCCc3ccccc3)C2)cc1` [SUAM 14497, N-[N-4-phenylbutanoyl)-trans-4-(4-methoxybenzoyloxy-L-prolyl]pyrrolidine] here?
A: 0.15 μg/test tube

Q: `COc1ccccc1O[C@H]1C[C@@H](C(=O)N2CCCC2)N(C(=O)CCCc2ccccc2)C1` [SUAM 14467, N-[N-(4-phenylbutanoyl)-cis-4-(2-methoxyphenoxy)-L-prolyl]pyrrolidine] was tested. Which IC50 [1] did it give?
A: 0.008 μg/test tube

Q: What does the source list for `COc1ccc(O[C@H]2C[C@@H](C(=O)N3CCCC3)N(C(=O)CCCc3ccccc3)C2)cc1` [SUAM 14441, N-[N-(4-phenylbutanoyl)-cis-4-(4-methoxyphenoxy)-L-prolyl]pyrrolidine]?
A: IC50 [1]: 0.01 μg/test tube; Latency ([2]; 1.0 mg/kg per os): 101 s

Q: Which results are given for `CC(=O)O[C@@H]1C[C@@H](C(=O)N2CCCC2)N(C(=O)CCCc2ccccc2)C1` [SUAM 14506, N-[N-(4-phenylbutanoyl)-trans-4-acetoxy-L-prolyl]pyrrolidine]?
A: IC50 [1]: 0.03 μg/test tube; Latency ([2]; 3.0 mg/kg per os): 64 s

Q: Which results are given for `O=C([C@@H]1C[C@H](O)CN1C(=O)CCCc1ccccc1)N1CCCC1` [SUAM 14496, N-[N-(4-phenylbutanoyl)-cis-4-hydroxy-L-prolyl]pyrrolidine]?
A: IC50 [1]: 0.10 μg/test tube; Latency ([2]; 0.3 mg/kg per os): 147 s; Latency ([2]; 1.0 mg/kg per os): 138 s; Latency ([2]; 3.0 mg/kg per os): 135 s

Q: With `O=C([C@@H]1C[C@H](Oc2ccccc2)CN1C(=O)CCCc1ccccc1)N1CCCC1` [SUAM 14504, N-[N-(4-phenylbutanoyl)-cis-4-phenoxy-L-prolyl]pyrrolidine] as the molecule, how does the IC50 [1] read?
A: 0.02 μg/test tube

Q: With `COc1ccc(C(=O)O[C@H]2C[C@@H](C(=O)N3CCCC3)N(C(=O)CCCc3ccccc3)C2)cc1` [SUAM 14501] as the molecule, how does the IC50 [1] read?
A: 0.04 μg/test tube

Q: What does the source list for `Cc1ccc(O[C@H]2C[C@@H](C(=O)N3CCCC3)N(C(=O)CCCc3ccccc3)C2)cc1` [SUAM 14509, N-[N-(4-phenylbutanoyl)-cis-4-(4-methylphenoxy)-L-prolyl]pyrrolidine]?
A: IC50 [1]: 0.03 μg/test tube; Latency ([2]; 3.0 mg/kg per os): 95 s

Q: Which IC50 [1] does the source give for `O=C([C@@H]1C[C@@H](O)CN1C(=O)CCCc1ccccc1)N1CCCC1` [SUAM 14432, N-[N-(4-phenylbutanoyl)-trans-4-hydroxy-L-prolyl]pyrrolidine] here?
A: 0.07 μg/test tube

Q: What about the Latency ([2]; 1.0 mg/kg per os) of the same molecule?
A: 76 s

Q: What about the Latency ([2]; 3.0 mg/kg per os) of the same molecule?
A: 153 s

Q: `COc1ccc(O[C@H]2C[C@@H](C(=O)N3CCCC3)N(C(=O)OCc3ccccc3)C2)cc1` [SUAM 14491, N-[N-benzyloxycarbonyl-cis-4-(4-methoxyphenoxy)-L-prolyl]pyrrolidine] was tested. Which IC50 [1] did it give?
A: 0.04 μg/test tube

Q: How did the IC50 [1] turn out when `O=C(O[C@@H]1C[C@@H](C(=O)N2CCCC2)N(C(=O)CCCc2ccccc2)C1)c1ccccc1` [SUAM 14498] was run?
A: 0.30 μg/test tube
